Assay results: ChEMBL document CHEMBL3603786, “The 2',4'-dihydroxychalcone could be explored to develop new inhibitors against the glycerol-3-phosphate dehydrogenase from Leishmania species” (Bioorg Med Chem Lett, 2015)

What was measured:
Leishmania amazonensis [1] = experiment: Ratio of pentamidine IC50 to compound IC50 for Leishmania amazonensis MPRO/BR/1972/M1841-LV-79; format: functional
Leishmania amazonensis [2] = experiment: Antileishmanial activity against promastigotes of Leishmania amazonensis MPRO/BR/1972/M1841-LV-79 after 72 hrs by MTT assay; format: functional, organism-based; settings: MPRO/BR/1972/M1841-LV-79, 72 h
[3] = Cytotoxicity against Swiss albino mouse peritoneal macrophages after 24 hrs by MTT assay; format: cell-based, Peritoneal macrophage cell
[4] = Selectivity index, ratio of CC50 for Swiss albino mouse peritoneal macrophages to IC50 for promastigotes of Leishmania amazonensis MPRO/BR/1972/M1841-LV-79; format: functional

| SMILES | Ratio IC50 (Leishmania amazonensis [1]) | IC50 (Leishmania amazonensis [2]) [µM] | CC50 at 24 h [3] [µM] | Ratio CC50/IC50 [4] |
| --- | --- | --- | --- | --- |
| O=C(/C=C/c1ccccc1)c1ccc(O)cc1O [2',4'-DIHYDROXYCHALCONE] | 16 | 0.4 | 417 | 1041.7 |
| N=C(N)c1ccc(OCCCCCOc2ccc(C(=N)N)cc2)cc1 [PENTAMIDINE] | – | 6.7 | 35.7 | 5.3 |
